{"source": "patent US10294234B2", "about": "“HIV inhibitor compounds” (priority 2017, dated 2019)", "key": {"in vivo [1]": {"assay": "in vivo", "experimental": "Pharmacokinetic Profiling Dog PK\nEach dosing group consisted of three non-naïve male beagle dogs. At dosing, the animals weighed between 9 to 12 kg. The animals were fasted overnight prior to dose administration and up to four hours after dosing. The test article was administered by intravenous infusion over 30-minutes. The rate of infusion was adjusted according to the body weight of each animal to deliver a dose of 0.5 or 1.0 mg/kg. For the oral dosing group, the test article was administered by oral gavage at a dose volume of 2 mL/kg.\nSerial venous blood samples (approximately 1.0 mL each) were collected at predose and 0.25, 0.48, 0.58, 0.75, 1.0, 1.5, 2, 4, 8, 12 and 24 hours post dose from each animal for the IV dosing group; blood samples were collected at predose, 0.25, 0.50, 1, 2 4, 6, 8,12 and 24 hours post dose for the oral dosing group. The blood samples were collected into Vacutainer™ tubes containing EDTA-K2 as the anti-coagulant and were immediately placed on wet ice pending centrifugation for plasma. An LC/MS/MS method was used to measure the concentration of test compound in plasma. Non-compartmental pharmacokinetic analysis was performed on the plasma concentration-time data. VSS=apparent volume of distribution, t1/2=half life, F=oral bioavailability."}, "in vivo [2]": {"assay": "in vivo", "conditions": "rat, in vivo", "procedure,_shortened": "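Male SD rats (n=3/group, 0.27–0.32 kg), fasted overnight, given 0.5 or 1.0 mg/kg by 30-min IV infusion, or by oral gavage. Serial plasma samples (EDTA-K2) over 24 h measured by LC/MS/MS; non-compartmental PK analysis.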"}, "[3]": {"conditions": "1 uM compound, NADPH", "procedure,_shortened": "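LC/MS/MS read-out of parent compound remaining; in vitro t1/2 converted to Clint. Incubation: 1 uM compound, 0.5 mg/mL dog/rat/human liver microsomes, NADPH-regenerating system, duplicate sets, time-points 2–65 minutes.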"}, "[4]": {"system": "HIV-1 (IIIB) in MT-4 cells", "assay": "MT-4 HIV assay", "assay_type": "cell-based", "conditions": "Human immunodeficiency virus 1, MT4, 120 h; HIV-1 (IIIB), MT-4 cells, 5 days, Cell Titer Glo; read-out: EC50", "procedure,_shortened": "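Antiviral activity was read by Cell Titer Glo after a 5-day, 37 °C culture of MT-4 cells pre-infected with a 1:250 dilution of HIV-1 (IIIB). Compounds were tested as threefold dilution series in complete RPMI. Controls were no drug, mock infection and 5 uM AZT.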"}, "[5]": {"system": "HIV-1 (IIIB) in MT-4 cells", "assay": "Protein adjusted EC95 (high resolution antiviral assay with equilibrium dialysis plasma protein binding)", "assay_type": "cell-based", "conditions": "EC95 adjusted for plasma protein binding (10% plasma vs cell culture media)", "experimental": "MT-4 HIV High Resolution Antiviral Assay\nAssay protocol is identical to that described for the MT-4 antiviral assay with the following changes: Each drug is run in 2 series of quadruplicates with different starting concentrations for each series and 19 1.5 fold dilutions performed across the plate. […] Data is analyzed and Hill coefficients determined in Graph Pad Prism (San Diego, Calif.). EC95s were determined by the formula EC95=(19)^I/hill coefficient×EC50. HD values were determined for certain compounds and reported in Table 5 below as an illustrative example.\nEquilibrium Dialysis Assay\nPooled plasma (from at least 3 males and 3 females) was from Bioreclamation IVT. Sodium EDTA was used as the anticoagulant. 10% plasma was diluted in 0.133M phosphate buffer consisted of 1.5% (w/v) Sodium EDTA.\nRPMI cell culture media consisted 10% FBS was provided by biology department, Gilead Sciences, Inc.\nPlasma Protein Binding Assay:\nStudies were conducted in duplicate or triplicate using a Dianorm Equilibrium Dialyser (Harvard Apparatus, Holliston Mass.) with each cell consisting of a semipermeable membrane (2.4 cm working diameter) separating two 1 mL PTFE half-cells (Weder HG, Schildknecht J, Kesselring P. A new equilibrium dialyzing system. American Laboratory. 1971; 10: 15-21). Prior to the study, the dialysis membrane was soaked for approximately one hour in 0.133 M phosphate buffer, pH 7.4. 10% plasma and cell culture media spiked with 1 μM compound (1 mL) were placed into opposite sides of the assembled dialysis cells and the dialysis cells were then rotated slowly in a 37° C. water bath. After the equilibration period, matrix-containing samples from both sides were drained into pre-weighed polypropylene tubes. Post-dialysis 10% plasma samples were transferred into centrifuge tubes containing 1 mL of blank cell culture media. Post-dialysis cell culture media samples were transferred into centrifuge tubes containing 1 mL of blank 10% plasma. All samples weights were measured and recorded for calculations of volume shift and recovery. […]"}, "[6]": {"conditions": "male beagle dogs, IV infusion over 30 minutes, 0.5 or 1.0 mg/kg"}}}
{"compound": "COC(=O)N[C@H](C(=O)N[C@@H](Cc1ccc(C#Cc2ccc(N3CC4CCC(C3)N4C3COC3)nc2)cc1)[C@@H](O)CN(Cc1c(F)cc(-c2ccn(C(F)F)n2)cc1F)NC(=O)[C@@H](NC(=O)OC)C(C)(C)C(F)(F)F)C(C)(C)C(F)(F)F", "note": "[Example 58, Methyl ((5S,8S,9S,14S)-11-(4-(1-(difluoromethyl)-1H-pyrazol-3-yl)-2,6-difluorobenzyl)-16,16,16-trifluoro-9-hydroxy-15,15-dimethyl-8-(4-((6-(8-(oxetan-3-yl)-3,8-diazabicyclo[3.2.1]octan-3-yl)pyridin-3-yl)ethynyl)benzyl)-3,6,13-trioxo-5-(1,1,1-trifluoro-2-methylpropan-2-yl)-2-oxa-4,7,11,12-tetraazahexadecan-14-yl)carbamate]", "values": [{"measurement": "DOG IV CL", "setting": "in vivo [1]; [6]", "result": 7.83, "unit": "mL/min/kg"}, {"measurement": "DOG IV T1/2", "setting": "in vivo [1]; [6]", "result": 13.8, "unit": "h"}, {"measurement": "DOG PO F", "setting": "in vivo [1]; male beagle dogs, oral gavage, PO dose 2 mg/kg", "result": 18, "unit": "%"}, {"measurement": "Vd", "setting": "in vivo [1]; male, beagle, dog, plasma, iv", "result": 6.34, "unit": "L/kg"}, {"measurement": "Vd", "setting": "in vivo [2]; male, SD, iv", "result": 6.68, "unit": "L/kg"}, {"measurement": "RAT PO F", "setting": "in vivo [2]; male, SD, po, 2.5 mg/kg", "result": 37.2, "unit": "%"}, {"measurement": "RAT IV CL", "setting": "in vivo [2]; iv", "result": 8, "unit": "mL/min/kg"}, {"measurement": "RAT IV T1/2", "setting": "in vivo [2]; iv", "result": 12.8, "unit": "h"}, {"measurement": "Human Pred Cl.", "setting": "[3]; human liver microsomes 0.5 mg/mL", "result": "<0.11", "unit": "L/H/kg"}, {"measurement": "Rat. Pred. Cl.", "setting": "[3]; rat liver microsomes 0.5 mg/mL", "result": 0.24, "unit": "L/H/kg"}, {"measurement": "EC50", "setting": "[4]", "result": 4.79, "unit": "nM"}, {"measurement": "Protein Adjusted EC95", "setting": "[5]", "result": 353, "unit": "nM"}]}
